Experimental findings from publication PMC6120666 (The EMBO Journal, 2018) are described below.

Holding throughout (assay): Drug affinity chromatography with c-ponatinib and LC-MS/MS (ponatinib interactome)
Assay type in all cases: binding

Test [1] deals with T1, proteins of U2OS cell lysate (Homo sapiens, UniProt P55060).
T1 construct: Proteins enriched by c-ponatinib from U2OS cell lysate; endogenous in cells; host or cells: U2OS cell lysate
To be noted: CSE1L, Exportin-2. An outline of the steps: (§1)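 Proteins were identified by nano-UPLC–MS/MS after elution with formic acid and trypsin digestion. They were captured from U2OS lysate (2 mg protein per pulldown, NP-40 buffer) on amine-coupled NHS beads during a 2 h incubation at 4 °C.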

In test [2] the target is T2, proteins of U2OS cell lysate (Homo sapiens, UniProt P62081).
T2 construct: Proteins enriched by c-ponatinib from U2OS cell lysate; endogenous in cells; host or cells: U2OS cell lysate
To be noted: RPS7, 40S ribosomal protein S7. A digest of the protocol:
as §1

Test [3] deals with T3, proteins of U2OS cell lysate (Homo sapiens, UniProt P54760).
T3 construct: Proteins enriched by c-ponatinib from U2OS cell lysate; endogenous in cells; host or cells: U2OS cell lysate
The note with it: EPHB4, Ephrin type-B receptor 4. A digest of the protocol:
as §1

Test [4] concerns the target T4, proteins of U2OS cell lysate (Homo sapiens, UniProt O95819).
T4 construct: Proteins enriched by c-ponatinib from U2OS cell lysate; endogenous in cells; host or cells: U2OS cell lysate
To be noted: MAP4K4, Mitogen-activated protein kinase kinase kinase kinase 4. An outline of the steps:
as §1

The target in test [5] is T5, proteins of U2OS cell lysate (Homo sapiens, UniProt O95292).
T5 construct: Proteins enriched by c-ponatinib from U2OS cell lysate; endogenous in cells; host or cells: U2OS cell lysate
To be noted: VAPB, Vesicle-associated membrane protein-associated protein B/C. An outline of the steps:
as §1

For test [6], the target named is T6, proteins of U2OS cell lysate (Homo sapiens, UniProt Q13813).
T6 construct: Proteins enriched by c-ponatinib from U2OS cell lysate; endogenous in cells; host or cells: U2OS cell lysate
The note with it: SPTAN1, Spectrin alpha chain, non-erythrocytic 1. A digest of the protocol: as §1

The target of test [7] is T7, proteins of U2OS cell lysate (Homo sapiens, UniProt P24534).
T7 construct: Proteins enriched by c-ponatinib from U2OS cell lysate; endogenous in cells; host or cells: U2OS cell lysate
T7 sequence (P24534 whole entry): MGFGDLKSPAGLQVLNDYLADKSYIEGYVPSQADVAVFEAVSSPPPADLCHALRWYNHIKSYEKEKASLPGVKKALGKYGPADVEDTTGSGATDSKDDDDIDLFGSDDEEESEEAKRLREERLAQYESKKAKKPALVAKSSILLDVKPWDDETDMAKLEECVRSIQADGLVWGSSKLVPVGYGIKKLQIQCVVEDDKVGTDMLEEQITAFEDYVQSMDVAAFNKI
The note with it: EEF1B2, Elongation factor 1-beta. An outline of the steps:
as §1

For test [8], the target named is T8, proteins of U2OS cell lysate (Homo sapiens, UniProt P08559).
T8 construct: Proteins enriched by c-ponatinib from U2OS cell lysate; endogenous in cells; host or cells: U2OS cell lysate
T8 sequence (P08559 30-390): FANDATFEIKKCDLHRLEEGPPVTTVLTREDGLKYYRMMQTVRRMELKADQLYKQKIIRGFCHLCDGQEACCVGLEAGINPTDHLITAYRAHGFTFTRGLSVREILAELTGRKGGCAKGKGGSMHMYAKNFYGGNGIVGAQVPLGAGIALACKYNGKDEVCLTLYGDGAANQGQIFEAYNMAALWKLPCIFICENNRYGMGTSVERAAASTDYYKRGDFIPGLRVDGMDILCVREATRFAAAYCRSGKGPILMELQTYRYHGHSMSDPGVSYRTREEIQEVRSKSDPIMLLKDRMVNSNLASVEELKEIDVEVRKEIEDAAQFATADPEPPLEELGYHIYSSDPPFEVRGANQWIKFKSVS
To be noted: PDHA1, Pyruvate dehydrogenase E1 component subunit alpha, somatic form, mitochondrial. An outline of the steps: as §1

Test [9] deals with T9, proteins of U2OS cell lysate (Homo sapiens, UniProt Q00536).
T9 construct: Proteins enriched by c-ponatinib from U2OS cell lysate; endogenous in cells; host or cells: U2OS cell lysate
The note with it: CDK16, Cyclin-dependent kinase 16. A digest of the protocol:
as §1

Test [10] deals with T10, proteins of U2OS cell lysate (Homo sapiens, UniProt Q9UFG5).
T10 construct: Proteins enriched by c-ponatinib from U2OS cell lysate; endogenous in cells; host or cells: U2OS cell lysate
To be noted: C19orf25, UPF0449 protein C19orf25. An outline of the steps: as §1

The target of test [11] is T11, proteins of U2OS cell lysate (Homo sapiens, UniProt Q14152).
T11 construct: Proteins enriched by c-ponatinib from U2OS cell lysate; endogenous in cells; host or cells: U2OS cell lysate
T11 sequence (Q14152 whole entry): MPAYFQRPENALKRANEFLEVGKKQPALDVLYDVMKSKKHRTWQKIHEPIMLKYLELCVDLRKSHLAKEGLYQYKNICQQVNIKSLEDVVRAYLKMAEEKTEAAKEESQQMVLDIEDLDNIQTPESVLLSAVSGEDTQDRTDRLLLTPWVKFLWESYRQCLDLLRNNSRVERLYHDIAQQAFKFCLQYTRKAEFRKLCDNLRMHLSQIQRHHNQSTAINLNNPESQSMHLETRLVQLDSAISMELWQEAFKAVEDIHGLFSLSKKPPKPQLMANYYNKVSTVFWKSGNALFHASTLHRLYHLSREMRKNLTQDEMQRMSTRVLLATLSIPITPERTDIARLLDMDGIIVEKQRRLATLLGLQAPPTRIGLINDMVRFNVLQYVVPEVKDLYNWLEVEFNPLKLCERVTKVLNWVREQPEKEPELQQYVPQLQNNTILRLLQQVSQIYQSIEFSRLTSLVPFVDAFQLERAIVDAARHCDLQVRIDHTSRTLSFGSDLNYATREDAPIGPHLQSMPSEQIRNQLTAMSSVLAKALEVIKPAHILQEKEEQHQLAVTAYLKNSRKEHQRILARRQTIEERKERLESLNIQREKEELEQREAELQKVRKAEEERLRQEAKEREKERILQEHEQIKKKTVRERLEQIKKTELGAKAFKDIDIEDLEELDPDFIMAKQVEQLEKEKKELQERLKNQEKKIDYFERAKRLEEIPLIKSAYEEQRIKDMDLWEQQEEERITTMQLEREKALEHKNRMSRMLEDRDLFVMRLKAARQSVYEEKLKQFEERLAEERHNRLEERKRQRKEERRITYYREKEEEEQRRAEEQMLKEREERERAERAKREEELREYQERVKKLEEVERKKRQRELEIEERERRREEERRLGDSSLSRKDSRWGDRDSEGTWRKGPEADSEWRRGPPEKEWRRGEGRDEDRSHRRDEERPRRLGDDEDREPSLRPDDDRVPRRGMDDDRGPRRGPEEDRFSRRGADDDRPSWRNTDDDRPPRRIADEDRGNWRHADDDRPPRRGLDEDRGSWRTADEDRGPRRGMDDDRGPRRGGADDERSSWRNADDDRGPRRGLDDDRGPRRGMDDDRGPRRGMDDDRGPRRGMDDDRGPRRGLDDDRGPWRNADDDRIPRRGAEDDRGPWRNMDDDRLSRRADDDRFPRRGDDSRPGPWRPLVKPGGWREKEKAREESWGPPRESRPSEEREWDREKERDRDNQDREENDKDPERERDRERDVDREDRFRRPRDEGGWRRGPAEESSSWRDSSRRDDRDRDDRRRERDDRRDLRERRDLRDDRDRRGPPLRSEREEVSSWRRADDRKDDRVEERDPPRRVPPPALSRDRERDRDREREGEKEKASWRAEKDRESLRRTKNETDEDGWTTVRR
The note with it: EIF3A, Eukaryotic translation initiation factor 3 subunit A. An outline of the steps:
as §1

Test [12] deals with T12, proteins of U2OS cell lysate (Homo sapiens, UniProt P35232).
T12 construct: Proteins enriched by c-ponatinib from U2OS cell lysate; endogenous in cells; host or cells: U2OS cell lysate
To be noted: PHB, Prohibitin. A digest of the protocol: as §1

Test [13] concerns the target T13, proteins of U2OS cell lysate (Homo sapiens, UniProt P43487).
T13 construct: Proteins enriched by c-ponatinib from U2OS cell lysate; endogenous in cells; host or cells: U2OS cell lysate
The note with it: RANBP1, Ran-specific GTPase-activating protein. An outline of the steps:
as §1

The target of test [14] is T14, proteins of U2OS cell lysate (Homo sapiens, UniProt Q96MW5).
T14 construct: Proteins enriched by c-ponatinib from U2OS cell lysate; endogenous in cells; host or cells: U2OS cell lysate
T14 sequence (Q96MW5 whole entry): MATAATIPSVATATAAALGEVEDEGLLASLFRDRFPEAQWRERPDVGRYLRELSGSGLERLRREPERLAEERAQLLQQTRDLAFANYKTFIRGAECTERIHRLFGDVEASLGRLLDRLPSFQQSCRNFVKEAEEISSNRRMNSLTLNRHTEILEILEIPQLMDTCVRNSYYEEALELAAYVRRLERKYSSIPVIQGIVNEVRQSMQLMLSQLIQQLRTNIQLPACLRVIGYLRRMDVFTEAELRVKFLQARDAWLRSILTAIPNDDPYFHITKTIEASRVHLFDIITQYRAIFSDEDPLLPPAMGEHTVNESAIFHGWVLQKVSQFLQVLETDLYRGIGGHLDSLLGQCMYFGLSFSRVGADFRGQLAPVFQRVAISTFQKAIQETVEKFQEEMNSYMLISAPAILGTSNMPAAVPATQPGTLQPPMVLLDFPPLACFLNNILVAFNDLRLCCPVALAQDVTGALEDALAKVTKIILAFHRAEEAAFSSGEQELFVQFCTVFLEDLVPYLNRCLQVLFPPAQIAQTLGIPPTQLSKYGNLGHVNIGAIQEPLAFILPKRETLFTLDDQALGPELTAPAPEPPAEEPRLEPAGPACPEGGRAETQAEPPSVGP
To be noted: COG8, Conserved oligomeric Golgi complex subunit 8. An outline of the steps:
as §1

Test [15] deals with T15, proteins of U2OS cell lysate (Homo sapiens, UniProt P29323).
T15 construct: Proteins enriched by c-ponatinib from U2OS cell lysate; endogenous in cells; host or cells: U2OS cell lysate
The note with it: EPHB2, Ephrin type-B receptor 2. An outline of the steps: as §1

Test [16] has as its target T16, proteins of U2OS cell lysate (Homo sapiens, UniProt P17844).
T16 construct: Proteins enriched by c-ponatinib from U2OS cell lysate; endogenous in cells; host or cells: U2OS cell lysate
To be noted: DDX5, Probable ATP-dependent RNA helicase DDX5. An outline of the steps:
as §1

In test [17] the target is T17, proteins of U2OS cell lysate (Homo sapiens, UniProt P04843).
T17 construct: Proteins enriched by c-ponatinib from U2OS cell lysate; endogenous in cells; host or cells: U2OS cell lysate
To be noted: RPN1, Dolichyl-diphosphooligosaccharide--protein glycosyltransferase subunit 1. A digest of the protocol: as §1

The target in test [18] is T18, proteins of U2OS cell lysate (Homo sapiens, UniProt P06576).
T18 construct: Proteins enriched by c-ponatinib from U2OS cell lysate; endogenous in cells; host or cells: U2OS cell lysate
T18 sequence (P06576 48-529): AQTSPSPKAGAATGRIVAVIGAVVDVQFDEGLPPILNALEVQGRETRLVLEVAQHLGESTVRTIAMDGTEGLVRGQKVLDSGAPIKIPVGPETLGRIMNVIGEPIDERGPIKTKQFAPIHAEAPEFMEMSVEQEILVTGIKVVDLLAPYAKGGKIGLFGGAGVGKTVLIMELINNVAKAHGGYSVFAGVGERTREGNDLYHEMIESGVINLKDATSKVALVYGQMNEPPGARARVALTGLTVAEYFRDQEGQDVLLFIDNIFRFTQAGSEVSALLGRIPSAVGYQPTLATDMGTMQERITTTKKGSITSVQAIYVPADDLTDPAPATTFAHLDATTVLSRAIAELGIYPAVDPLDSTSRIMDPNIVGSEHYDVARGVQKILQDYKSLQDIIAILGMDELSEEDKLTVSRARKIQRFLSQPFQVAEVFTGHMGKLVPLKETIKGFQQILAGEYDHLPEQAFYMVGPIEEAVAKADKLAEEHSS
The note with it: ATP5B, ATP synthase subunit beta, mitochondrial. An outline of the steps:
as §1

The target in test [19] is T19, proteins of U2OS cell lysate (Homo sapiens, UniProt P09493).
T19 construct: Proteins enriched by c-ponatinib from U2OS cell lysate; endogenous in cells; host or cells: U2OS cell lysate
T19 sequence (P09493 whole entry): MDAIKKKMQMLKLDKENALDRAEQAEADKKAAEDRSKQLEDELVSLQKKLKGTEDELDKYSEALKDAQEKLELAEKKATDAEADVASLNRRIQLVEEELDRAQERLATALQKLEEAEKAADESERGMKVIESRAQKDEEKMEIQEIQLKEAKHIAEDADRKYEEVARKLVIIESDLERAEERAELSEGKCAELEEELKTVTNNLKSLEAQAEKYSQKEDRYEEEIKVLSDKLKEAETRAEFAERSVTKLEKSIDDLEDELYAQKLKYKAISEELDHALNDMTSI
To be noted: captured protein TPM1, Rank 202. An outline of the steps: as §1

T16 sequence (P17844 whole entry): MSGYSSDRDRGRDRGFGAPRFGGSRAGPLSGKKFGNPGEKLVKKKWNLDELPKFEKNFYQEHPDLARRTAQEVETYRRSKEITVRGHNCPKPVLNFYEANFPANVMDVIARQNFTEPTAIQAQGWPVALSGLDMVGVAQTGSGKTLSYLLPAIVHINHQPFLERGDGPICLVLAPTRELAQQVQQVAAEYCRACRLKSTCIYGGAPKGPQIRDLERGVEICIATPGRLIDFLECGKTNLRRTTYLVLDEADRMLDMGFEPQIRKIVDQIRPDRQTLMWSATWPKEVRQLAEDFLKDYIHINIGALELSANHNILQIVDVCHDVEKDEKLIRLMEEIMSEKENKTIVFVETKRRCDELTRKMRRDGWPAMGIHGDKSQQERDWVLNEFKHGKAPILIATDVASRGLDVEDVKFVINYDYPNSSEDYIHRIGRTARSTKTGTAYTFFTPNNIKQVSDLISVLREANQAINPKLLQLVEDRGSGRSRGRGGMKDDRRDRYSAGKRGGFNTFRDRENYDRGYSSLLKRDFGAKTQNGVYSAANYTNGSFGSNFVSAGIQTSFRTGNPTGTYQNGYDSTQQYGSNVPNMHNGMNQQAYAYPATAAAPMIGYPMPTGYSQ
T1 sequence (P55060 whole entry): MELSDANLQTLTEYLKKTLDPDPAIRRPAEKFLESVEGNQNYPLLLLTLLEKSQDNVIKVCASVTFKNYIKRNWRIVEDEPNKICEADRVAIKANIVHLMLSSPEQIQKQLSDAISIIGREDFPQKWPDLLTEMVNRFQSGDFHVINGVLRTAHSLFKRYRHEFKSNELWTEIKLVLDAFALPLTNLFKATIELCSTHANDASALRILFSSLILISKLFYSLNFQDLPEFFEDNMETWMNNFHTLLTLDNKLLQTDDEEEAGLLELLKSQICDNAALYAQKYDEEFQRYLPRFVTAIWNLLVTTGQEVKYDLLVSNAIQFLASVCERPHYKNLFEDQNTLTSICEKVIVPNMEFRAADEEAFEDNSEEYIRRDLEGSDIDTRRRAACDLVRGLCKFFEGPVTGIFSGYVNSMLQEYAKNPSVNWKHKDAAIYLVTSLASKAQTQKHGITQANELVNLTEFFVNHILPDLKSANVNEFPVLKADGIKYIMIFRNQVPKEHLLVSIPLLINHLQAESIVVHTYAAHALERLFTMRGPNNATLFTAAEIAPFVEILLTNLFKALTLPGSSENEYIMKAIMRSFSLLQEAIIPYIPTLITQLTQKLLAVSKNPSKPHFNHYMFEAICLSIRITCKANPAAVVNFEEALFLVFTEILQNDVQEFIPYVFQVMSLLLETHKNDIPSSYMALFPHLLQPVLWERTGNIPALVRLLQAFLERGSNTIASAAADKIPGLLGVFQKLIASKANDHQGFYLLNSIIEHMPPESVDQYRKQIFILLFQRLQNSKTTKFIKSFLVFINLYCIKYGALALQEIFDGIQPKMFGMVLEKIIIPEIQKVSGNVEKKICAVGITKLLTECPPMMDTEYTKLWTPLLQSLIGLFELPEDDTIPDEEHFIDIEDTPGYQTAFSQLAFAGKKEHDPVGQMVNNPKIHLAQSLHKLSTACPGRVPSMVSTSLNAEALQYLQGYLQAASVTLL

Take `Cc1ccc(C(=O)Nc2ccc(CN3CCN(C)CC3)c(C(F)(F)F)c2)cc1C#Cc1cnc2cccnn12` [PON]: the “Average LFQ PON_WT” value was 25.3839 in [1]; 20.8944 in test [2]; 25.577 in test [3]; 26.8473 in test [4]; 20.7048 in test [5]; 24.813 in test [6]. The “Average LFQ PON_WT” value is given as 23.7043 in [7]; 21.0192 in [8]; 24.4833 in [9]; 20.1092 in test [10]; 21.466 in [11]; 29.1615 in test [12]. Further, the “Average LFQ PON_WT” value in test [13] is 20.4588; in test [14], 20.9378; in test [15], 23.9034; in [16], 21.2715; in [17], 23.8993; in test [18] it was 26.0565.

As to `Cc1ccc(C(=O)Nc2ccc(CN3CCN(CCCN)CC3)c(C(F)(F)F)c2)cc1C#Cc1cnc2cccnn12` [c-ponatinib, reference compound], the “Average LFQ intensity” value in [19] amounted to 21.8321.
